{"source": "patent US7572434B2", "about": "“Method for assessing the effect of a drug on long term memory formation” (Cold Spring Harbor Laboratory, priority 1994, dated 2009)", "molecules": {"B1": {"name": "dCREB2-a: Drosophila dCREB2 isoform, PKA-responsive transcriptional activator (SEQ ID NO.: 2), expressed from RSV-dCREB2-a (protein, listed as Drosophila sp.)", "chain": "MDNSIVEENGNSSAASGSNDVVDVVAQQAAAAVGGGGGGGGGGGGGGNPQQQQQNPQSTTAGGPTGATNNAQGGGVSSVLTTTANCNIQYPIQTLAQHGLQVSIWGPGAWCQLSSVRCYGSQPEVATKDVQSVIQANPSGVIQTAAGTQQQQQALAAATAMQKVVYVAKPPNSTVIHTTPGNAVQVRNKIPPTFPCKIKPEPNTQHPEDSDESLSDDDSQHHRSELTRRPSYNKIFTEISGPDMSGASLPMSDGVLNSQLVGTGAGGNAANSSLMQLDPTYYLSNRMSYNTNNSGIAEDQTRKREIRLQKNREAARECRRKKKEYIKCLENRVAVLENQNKALIEELKSLKELYCQTKND"}}, "key": {"wild-type (Can-S) flies": {"tested_on": "wild-type (Can-S) flies", "assay": "Pavlovian olfactory learning: memory retention after massed or spaced training in flies fed cycloheximide", "type": "in vivo, Drosophila", "conditions": "for one-day memory after massed training: vs control flies; for one-day memory retention after spaced training: vs glucose-fed flies", "procedure": "For experiments on one day retention after massed or spaced training, flies were fed 35 mM CXM and (w/v) 5% glucose dissolved in 3% ethanol. Groups of 100 flies were placed in feeding tubes (Falcon 2017) containing one 1.0×2.5 cm Whatmann 3MM filter paper strips that was soaked with a total of 126 μl of solution.\nThe feeding period was limited to 12-14 hrs prior to training, or to the 24-hr retention interval after training. Flies which were fed prior to training were transferred directly to the training apparatus after feeding, subjected to massed or spaced training, then transferred to test tubes containing filter paper strips soaked with 5% glucose during the 24-hr interval. Flies which were fed after training were trained, then transferred immediately to test tubes containing filter paper strips soaked with 5% glucose solution which was laced with 35 mM CXM. Flies remained in the test tubes for the duration of the 24-hr retention interval.\nFlies were trained with an automated version of the learning procedure of Tully, T. and W. G. Quinn, J. Comp. Physiol., 157: 263-277 (1985). In brief, flies were trapped in a training chamber, the inside of which was covered with an electrifiable copper grid. Groups of about 100 flies were exposed sequentially to two odors [either octanol (OCT) or methylcyclohexanol (MCH)], which were carried through the training chamber in a current of air, for 60 seconds with 45 seconds rest intervals after each odor presenation. During exposure to the first odor, flies also were subjected to twelve 1.5-second pulses of 60 V DC with a 5-second interpulse interval. After training, flies were transferred to food vials for a particular retention interval. Conditioned odor-avoidance responses then were tested by transferring flies to the choice point of a T-maze, where they were exposed simultaneously to OCT and MCH carried in the distal ends of the T-maze arms and out the choice point on converging currents of air. Flies were allowed to distribute themselves in the T-maze arms for two minutes, after which they were trapped in their respective arms, anesthetized and counted. The “percent correct” then was calculated as the number of flies avoiding the shock-paired odor (they were in the opposite T-maze arm) divided by the total number of flies in both arms. (The number of flies left at the choice point, which usually was less than 5%, were not included in this calculation). Finally, a performance index (PI) was calculated by averaging the percent corrects of two reciprocal groups of flies—one where OCT and shock were paired, the other where MCH and shock were paired—and then by normalizing the average so that a PI=0 represented a 50:50 distribution in the T-maze and a PI=100 represented 100% avoidance of the shock-paired odor. For these studies, three different training protocols were used: 1. One-cycle training consisted of the training session just described. 2. Massed training consisted of 10 of these training cycles delivered one right after the other. 3. Spaced training consisted of 10 training cycles with a 15-min rest interval between each. One-cycle training was used to assay learning, while massed and spaced was used to assay consolidated memories.\nA. One-day memory in wild-type flies fed CXM before or immediately after massed or spaced training (FIG. 8): PIs from these four drug treatments (−CXM before, −CXM after, +CXM before and +CXM after) and two training procedures (massed and spaced) were subjected to a TWO-WAY ANOVA with DRUG (F(3,56)=8.93; P<0.001) and TRAINing (F(1,56)=18.10, P<0.001) as main effects and DRUG×TRAIN (F(3,56)=4.68, P=0.006) as the interaction term. The six planned comparisons were judged significant if P≦0.01.\nDifferent groups of wild-type (Can-S) flies were fed 5% glucose solution alone (hatched bars) or laced with 35 mM CXM (striped bars) either for 12-14 hr overnight before massed or spaced training or for the 24-hr retention interval immediately after training. […]"}, "[1]": {"biological_target": "T1, DNOS (Drosophila nitric oxide synthase) (Drosophila melanogaster, UniProt Q27571, DUP33-33/S105L/S1197R/S20A/S287C)", "T1 construct": "contained dNOS cDNA (with an XbaI site engineered immediately upstream of the ATG codon) cloned into the XbaI and SmaI sites; made in house; host or cells: 293 human embryonic kidney cells, transient calcium-phosphate transfection; unpurified soluble protein extract", "T1 sequence (Q27571 other isoform, or with tags, fused parts or gaps S20A/DUP33-33/S105L/S287C/S1197R)": "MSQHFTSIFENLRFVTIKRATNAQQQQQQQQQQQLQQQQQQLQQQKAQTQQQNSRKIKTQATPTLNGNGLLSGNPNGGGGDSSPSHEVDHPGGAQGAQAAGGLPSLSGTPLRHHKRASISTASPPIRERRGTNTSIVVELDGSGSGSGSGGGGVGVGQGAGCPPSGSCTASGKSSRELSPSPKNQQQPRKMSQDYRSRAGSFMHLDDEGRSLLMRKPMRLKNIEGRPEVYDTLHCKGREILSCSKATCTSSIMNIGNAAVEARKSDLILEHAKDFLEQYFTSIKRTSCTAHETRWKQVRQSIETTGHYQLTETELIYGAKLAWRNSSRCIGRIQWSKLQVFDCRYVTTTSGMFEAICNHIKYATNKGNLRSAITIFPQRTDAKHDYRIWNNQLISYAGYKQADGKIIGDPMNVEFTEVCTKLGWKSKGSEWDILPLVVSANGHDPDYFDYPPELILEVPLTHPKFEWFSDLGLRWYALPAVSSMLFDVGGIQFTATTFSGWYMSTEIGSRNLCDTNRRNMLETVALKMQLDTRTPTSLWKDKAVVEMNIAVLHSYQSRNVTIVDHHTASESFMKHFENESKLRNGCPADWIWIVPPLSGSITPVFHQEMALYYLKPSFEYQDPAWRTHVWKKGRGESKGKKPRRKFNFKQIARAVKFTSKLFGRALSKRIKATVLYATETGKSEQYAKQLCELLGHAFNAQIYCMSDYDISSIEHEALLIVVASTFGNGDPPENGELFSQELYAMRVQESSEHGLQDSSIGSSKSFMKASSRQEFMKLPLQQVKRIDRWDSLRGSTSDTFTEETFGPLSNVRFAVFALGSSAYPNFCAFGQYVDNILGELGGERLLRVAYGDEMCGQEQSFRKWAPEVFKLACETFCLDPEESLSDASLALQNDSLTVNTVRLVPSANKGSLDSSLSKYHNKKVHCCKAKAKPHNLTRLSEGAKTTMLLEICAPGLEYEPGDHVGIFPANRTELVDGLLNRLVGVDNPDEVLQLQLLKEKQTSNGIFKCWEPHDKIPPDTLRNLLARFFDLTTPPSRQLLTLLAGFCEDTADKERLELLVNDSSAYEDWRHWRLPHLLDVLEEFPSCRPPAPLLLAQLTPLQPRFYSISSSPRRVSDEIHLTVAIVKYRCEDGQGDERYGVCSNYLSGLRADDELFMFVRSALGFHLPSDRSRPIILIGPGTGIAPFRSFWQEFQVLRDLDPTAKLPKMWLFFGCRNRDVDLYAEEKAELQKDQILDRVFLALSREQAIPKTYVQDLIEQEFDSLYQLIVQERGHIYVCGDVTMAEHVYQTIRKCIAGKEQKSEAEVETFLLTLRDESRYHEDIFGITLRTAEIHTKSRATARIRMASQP", "assay": "DNOS enzyme activity, conversion of 3H-L-arginine to 3H-L-citrulline in extracts of dNOS-transfected 293 cells", "type": "biochemical", "description": "[In a parallel experiment, the specific activity of rat neuronal NOS expressed from the same vector in 293 cells was 3.0±0.02 pmol/mg/min, N=4]. DNOS activity was dependent on exogenous Ca^2+/calmodulin and on NADPH, two cofactors necessary for activity of constitutive mammalian NOSs (Iyengar, R., Proc. Natl. Acad. Sci. USA, 84: 6369-6373 (1987); Bredt, D. S., Proc. Natl. Acad. Sci. USA, 87: 682-685 (1990)). DNOS activity was reduced 90% by the Ca^2+ chelator EGTA (FIG. 17B, group C). Also, 500 μM N-(6-aminohexyl)-1-naphthalene-sulfonamide (W5), a calmodulin antagonist which inhibits activity of neuronal NOS (Bredt, D. S., Proc. Natl. Acad. Sci. USA, 87: 682-685 (1990)), diminished DNOS activity to 18% (0.0222±0.001 pmol/mg/min, N=2). In the absence of exogenous NADPH, DNOS (or nNOS) activity was reduced 20% (0.1061±0.011 pmol/mg/min, N=4 for DNOS; 2.7935±0.033 pmol/mg/min, N=2 for NNOS). DNOS activity also was blocked by inhibitors of mammalian NOSs (Rees, D. D., Br. J. Pharmacol., 101: 746-752 (1990)).\nThe expression construct for activity assays contained dNOS cDNA (with an XbaI site engineered immediately upstream of the ATG codon) cloned into the XbaI and SmaI sites of the pCGN expression vector (M. Tanaka and W. Herr, Cell, 60: 375 (1990)). 293 human kidney cells were transfected with 15 μg of the dNOS construct, or vector DNA, and precipitated with calcium phosphate as described in (M. J. Imperiale, L. T. Feldman and J. R. Nevins, Cell, 35: 127 (1983)). Cells were collected 2 days later and protein extracts were prepared as described in (J. Sambrook, E. F. Fritsch, T. Maniatis, Molecular Cloning: A Laboratory Manual (Cold Spring Harbor Laboratory, Cold Spring Harbor, N.Y., 1989)).\nThe enzymatic assay was done essentially as described previously (D. Bredt and S. Snyder, Proc. Natl. Acad. Sci. USA, 87: 682 (1990)). A […] containing 25 μl (50-100 μg) of soluble protein extract, 50 mM Hepes pH 7.4, […], 3 μM FMN, 10 μM tetrahydrobiopterin (ICN), 1 mM DTT, 0.8 mM CaCl2, 1 mM NADPH, 10 μg/ml calmodulin, 2 μl of [^3H]L-arginine (35.7 Ci/mmol, NEN) and 50 mM L-valine in was incubated for 60 minutes at 37° C. The reaction was stopped with 0.5 ml 20 mM Hepes pH 5.5, 2 mM EDTA, 2 mM EGTA, loaded on 0.5 ml Dowex AG 50WX-8 (Na^+ form) column and eluted with 3×0.5 ml of the stop buffer. Radioactivity present in the eluent was quantified in a scintillation counter.\nEnzymatic activity was detected only in cells transfected with dNOS cDNA construct (groups B-D) and is presented as specific activity (pmol of citrulline/mg/min.). The DNOS activity also was measured in the presence of 1 mM EGTA without exogenous Ca^2+ or calmodulin (group C), or in the presence of […] (group D). N=4 reactions per group."}, "[2]": {"tested_on": "PKA-responsive transcription (CRE-directed reporter) in F9 cells", "assay": "PKA-responsive transcription from the CRE-containing D(-71) CAT reporter in transiently transfected F9 cells", "type": "cell-based", "conditions": "cotransfection of dCREB2-a and PKA; CAT/βgal ratios standardized to PKA-transfected dishes", "procedure": "Undifferentiated F9 cells were maintained and transfected using the calcium phosphate method as described in Darrow, A. L. et al., “Maintenance and Use of F9 Teratocarcinoma Cells”, In Meth. Enzymol., v. 190 (1990), except that chloroquine was added to […] immediately before transfection and precipitates were washed off ten hours after transfection, at which time the dishes received fresh chloroquine-free medium. Amounts of DNA in transfections were made equivalent by adding RSV-0 where required. Cells were harvested 30 hours after transfection. Extracts were made by three cycles of freeze/thawing, with brief vortexing between cycles. Particulate matter was cleared from extracts by ten minutes of centrifugation in the cold. β-galactosidase assays were performed as described in Miller, J. H., Experiments in Molecular Genetics, Cold Spring Harbor Laboratory, Cold Spring Harbor, N.Y., 1972. CAT assays were performed as described in Sheen, J. Y. and B. Seed, Gene, 67: 271-277 (1988) using aliquots of extract heat-treated at 65° C. for ten minutes and centrifuged for ten minutes to remove debris. Results reported are from three experiments run on different days with at least three dishes per condition within each experiment. Error bars represent standard error of the mean, with error propagation taken into account (Grossman, M. and H. W. Norton, J. Hered., 71: 295-297 (1980)).\nF9 cells were transiently transfected with 10 μg of D(−71) CAT plasmid as a CRE-directed reporter. 5 μg of RSV-βgal reporter was included in each dish as a normalization control for transfection efficiency. Different groups received 8 μg of dCREB2-a expression vector and 4 μg of PKA expression vector, separately or in combination. Results are expressed as CAT/Pgal enzyme activity ratios, standardized to values obtained with PKA-transfected dishes. […]\nTwo different dCREB2 isoforms, dCREB2-a and dCREB2-b, have opposite roles in PKA-responsive transcription. […] CREB-dependent changes in gene expression were measured using a cotransfected construct that has a CRE-containing promoter fused to a reporter gene."}, "[3]": {"conditions": "35 mM CXM fed 12-14 hr before training"}, "[4]": {"conditions": "35 mM CXM fed for the 24-hr retention interval after training"}, "[5]": {"conditions": "flies fed CXM immediately before or after training"}}}
{"molecule": "C[C@@H]1C[C@@H]([C@H](O)CC2CC(=O)NC(=O)C2)C(=O)[C@@H](C)C1", "note": "[CXM, cycloheximide]", "values": [{"measurement": "one-day memory after massed training", "setting": "wild-type (Can-S) flies; [3]", "value": "no difference was detected"}, {"measurement": "one-day memory retention after spaced training", "setting": "wild-type (Can-S) flies; [3]", "value": "significantly lower than normal"}, {"measurement": "one-day memory after massed training", "setting": "wild-type (Can-S) flies; [4]", "value": "no difference was detected"}, {"measurement": "one-day memory retention after spaced training", "setting": "wild-type (Can-S) flies; [4]", "value": "significantly lower than normal"}, {"measurement": "anesthesia-resistant memory (ARM)", "setting": "wild-type (Can-S) flies; [5]", "value": "not affected"}, {"measurement": "long-term memory (LTM)", "setting": "wild-type (Can-S) flies; [5]", "value": "completely blocked"}]}
{"molecule": "CC(=O)O.CNC(=N)NCCC[C@H](N)C(=O)O", "note": "[N^G-monomethyl-L-arginine acetate]", "values": [{"measurement": "block of DNOS activity", "setting": "[1]; 100 μM N^G-monomethyl-L-arginine acetate", "value": "complete block"}, {"measurement": "DNOS specific activity", "setting": "[1]; 100 μM N^G-monomethyl-L-arginine acetate, N=2", "value": "0.0001 ± 0.0002", "unit": "pmol/mg/min"}]}
{"molecule": "NCCCCCCNS(=O)(=O)c1cccc2ccccc12", "note": "[W5, N-(6-aminohexyl)-1-naphthalene-sulfonamide]", "values": [{"measurement": "DNOS specific activity", "setting": "[1]; 500 μM W5, N=2", "value": "0.0222 ± 0.001", "unit": "pmol/mg/min"}, {"measurement": "remaining activity at 500 µM", "setting": "[1]; 500 μM W5, read-out: DNOS activity diminished to (remaining activity)", "value": 18, "unit": "%"}]}
{"molecule": "O=C(O)CN(CCOCCOCCN(CC(=O)O)CC(=O)O)CC(=O)O", "note": "[EGTA]", "values": [{"measurement": "DNOS activity reduced", "setting": "[1]; 1 mM EGTA without exogenous Ca2+ or calmodulin (FIG. 17B, group C)", "value": 90, "unit": "%"}]}
{"molecule": "COC(=O)[C@@H](N)CCCNC(=N)N[N+](=O)[O-]", "note": "[L-NAME, N^G-nitro-L-arginine methyl ester]", "values": [{"measurement": "DNOS activity reduced", "setting": "[1]; 100 mM L-NAME with exogenous Ca2+/calmodulin (FIG. 17B, group D)", "value": 84, "unit": "%"}]}
{"molecule": "B1", "values": [{"measurement": "activation of CRE reporter relative to PKA alone", "setting": "[2]", "value": 5.4, "unit": "fold"}]}
